# Reference: patent US11667602B2, “Compounds and their use” (AstraZeneca AB, priority 2020, dated 2023)
# Target: T1, human RXFP1 (Homo sapiens, UniProt Q9HBX9)
# T1 sequence (Q9HBX9 1-757): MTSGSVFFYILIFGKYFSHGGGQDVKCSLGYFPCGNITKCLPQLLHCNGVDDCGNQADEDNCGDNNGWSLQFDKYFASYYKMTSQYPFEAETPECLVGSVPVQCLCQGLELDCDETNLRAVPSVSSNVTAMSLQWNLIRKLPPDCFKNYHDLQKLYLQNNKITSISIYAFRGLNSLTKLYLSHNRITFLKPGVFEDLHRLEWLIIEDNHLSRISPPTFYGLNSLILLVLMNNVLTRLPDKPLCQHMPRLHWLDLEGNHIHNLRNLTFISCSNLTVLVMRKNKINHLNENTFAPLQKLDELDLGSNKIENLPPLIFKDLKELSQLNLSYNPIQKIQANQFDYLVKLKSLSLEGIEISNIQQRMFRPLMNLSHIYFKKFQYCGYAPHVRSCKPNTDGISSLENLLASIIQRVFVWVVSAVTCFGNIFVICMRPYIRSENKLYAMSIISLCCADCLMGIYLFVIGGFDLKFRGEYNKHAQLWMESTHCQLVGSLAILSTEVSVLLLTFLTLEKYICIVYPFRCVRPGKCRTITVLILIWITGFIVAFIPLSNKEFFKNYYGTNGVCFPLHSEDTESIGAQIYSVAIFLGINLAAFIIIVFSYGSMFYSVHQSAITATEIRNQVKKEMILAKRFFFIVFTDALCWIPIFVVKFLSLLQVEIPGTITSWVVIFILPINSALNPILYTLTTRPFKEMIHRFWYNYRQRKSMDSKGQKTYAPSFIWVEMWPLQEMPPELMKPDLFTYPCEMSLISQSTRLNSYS
# Test: RXFP1 Hu cAMP (Test A)
# Format: cell-based
# Design: expressed in transfected cells; host or cells: Jump-In T-REx CHO-K1 cells (ThermoFisher), induced with 10 ng/ml doxycycline for 24 h
# Conditions: RXFP1 Hu cAMP; for EC50: read-out: Test A EC50
# How it was run: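 Doxycycline-induced (10 ng/ml, 24 h) CHO-K1 cells stably expressing human RXFP1; cAMP read by competitive HTRF after 2 h at room temperature, with 0.5 mM IBMX final.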
Compound,Test A Sinf [%],EC50 [nM]
"COc1cc(F)c(O[C@H]2CC[C@@](C)(C(=O)O)CC2)cc1C(=O)NC1C(OC)CCC1C(=O)Nc1cccc(S(=O)(=O)C(F)(F)F)c1 (single isomer, unassigned) [Example 526, (1R,4s)-4-(2-Fluoro-4-methoxy-5-(((1S*,2S*,5S*)-2-methoxy-5-((3-((trifluoromethyl)sulfonyl)phenyl)carbamoyl)cyclopentyl)carbamoyl)phenoxy)-1-methylcyclohexane-1-carboxylic acid]",–,> 40000
"COc1cc(F)c(O[C@H]2CC[C@@](CO)(C(=O)O)CC2)cc1C(=O)NC1COCC1C(=O)NCC1(C)CCC1 (single isomer, unassigned) [Example 580, (1R,4s)-4-(2-Fluoro-4-methoxy-5-(((3S*,4R*)-4-(((1-methylcyclobutyl)methyl)carbamoyl)tetrahydrofuran-3-yl)carbamoyl)phenoxy)-1-(hydroxymethyl)cyclohexane-1-carboxylic acid]",–,> 40000
COc1cc(F)c(-c2cnc(C(=O)O)cn2)cc1C(=O)N[C@H]1[C@@H](C(=O)Nc2cccc(S(=O)(=O)C(F)(F)F)c2)[C@@H]2C=C[C@H]1C2 (racemic) [Example 276],95,3300
"COc1cc(F)c(O[C@H]2CC[C@@](C)(C(=O)O)CC2)cc1C(=O)NC1CCC1C(=O)Nc1ccc(F)c(S(F)(F)(F)(F)F)c1 (single isomer, unassigned) [Example 570, (1R,4s)-4-(2-Fluoro-5-(((1S*,2R*)-2-((4-fluoro-3-(pentafluoro-λ6-sulfaneyl)phenyl)carbamoyl)cyclobutyl)carbamoyl)-4-methoxyphenoxy)-1-methylcyclohexane-1-carboxylic acid]",128,9200
COc1cc(F)c(O[C@H]2CC[C@@](CO)(C(=O)O)CC2)cc1C(=O)N[C@@H]1C[C@@H](OC)C[C@@H]1C(=O)NCC(C)(C)C (racemic) [Example 338],104,4100
COc1cc(C#N)c(O[C@H]2CC[C@@](C)(C(=O)O)CC2)cc1C(=O)N[C@@H]1[C@H]2CC[C@H](C2)[C@@H]1C(=O)N[C@H](C)C1CCCCC1 [Example 120],95,–
COc1cc(F)c(-c2ccc(C(=O)O)cc2)cc1C(=O)N[C@@H]1CC[C@@H]1C(=O)Nc1cccc(S(=O)(=O)C(F)(F)F)c1 (racemic) [Example 301],69,–
COc1cc(F)c(-c2ccc(C(=O)O)cc2)cc1C(=O)N[C@H]1[C@@H](C(=O)N[C@@H]2CCCN(S(=O)(=O)C(F)(F)F)C2)[C@@H]2C=C[C@H]1C2 (racemic) [Example 312],50,7500
COc1cc(C#N)c(O[C@H]2CC[C@@](C)(C(=O)O)CC2)cc1C(=O)N[C@@H]1[C@H]2CC[C@H](C2)[C@@H]1C(=O)NCCCF [Example 135],76,–
"COc1cc(F)c(O[C@H]2CC[C@@](C)(C(=O)O)CC2)cc1C(=O)NC1COCCC1C(=O)Nc1ccc(F)c(S(F)(F)(F)(F)F)c1 (single isomer, unassigned) [Example 574, (1R,4s)-4-(2-Fluoro-5-(((3S*,4S*)-4-((4-fluoro-3-(pentafluoro-λ6-sulfaneyl)phenyl)carbamoyl)tetrahydro-2H-pyran-3-yl)carbamoyl)-4-methoxyphenoxy)-1-methylcyclohexane-1-carboxylic acid]",–,> 40000
"(1R,4s)-4-(2-fluoro-4-methoxy-5-(((1S*,2S*,5S*)-2-methoxy-5-((3-((trifluoromethyl)sulfonyl)phenyl)carbamoyl)cyclopentyl)carbamoyl)phenoxy)-1-methylcyclohexane-1-carboxylic acid [Example 527]",101,–
"(1R,4s)-4-(2-Fluoro-4-methoxy-5-(((1S*,2R*,4R*)-4-methoxy-2-(neopentylcarbamoyl)cyclopentyl)carbamoyl)phenoxy)-1-methylcyclohexane-1-carboxylic acid [Example 547]",114,–

# Continued, values first:
Test A Sinf [%],EC50 [nM],Compound
98,320,"COc1cc(F)c(O[C@H]2CC[C@@](OC)(C(=O)O)CC2)cc1C(=O)N[C@@H]1[C@H]2CC[C@H](C2)[C@@H]1C(=O)NCC1(C)CCC1 [Example 506, (1R,4r)-4-(2-Fluoro-4-methoxy-5-(((1S,2R,3S,4R)-3-(((1-methylcyclobutyl)methyl)carbamoyl)bicyclo[2.2.1]heptan-2-yl)carbamoyl)phenoxy)-1-methoxycyclohexane-1-carboxylic acid]"
117,37,"COc1cc(F)c(O[C@H]2CC[C@@H](C(N)=O)CC2)cc1C(=O)N[C@@H]1[C@@H]2CC[C@@H](C2)[C@@H]1C(=O)Nc1cccc(S(F)(F)(F)(F)F)c1 [Example 511, (1S,2S,3R,4R)-3-(5-(((1s,4S)-4-Carbamoylcyclohexyl)oxy)-4-fluoro-2-methoxybenzamido)-N-(3-(pentafluoro-A6-sulfaneyl)phenyl)bicyclo[2.2.1]heptane-2-carboxamide]"
119,440,COc1cc(C#N)c(O[C@H]2CC[C@@](C)(C(=O)O)CC2)cc1C(=O)Nc1cc(C)ccc1C(=O)N[C@H]1C[C@@H](C)C1 [Example 171]
102,29,COc1cc(C#N)c(O[C@H]2CC[C@@](C)(C(=O)O)CC2)cc1C(=O)N[C@@H]1[C@H]2CC[C@H](C2)[C@@H]1C(=O)NCc1cc(C)ccc1C [Example 136]
112,260,COc1cc(F)c(OCc2ccc(C(=O)O)cc2)cc1C(=O)N[C@@H]1[C@H]2CC[C@H](C2)[C@@H]1C(=O)Nc1cccc(S(=O)(=O)C(F)(F)F)c1 [Example 438]
108,1600,COc1cc(F)c(OCc2cccc(C(=O)O)c2)cc1C(=O)N[C@H]1[C@@H](C(=O)Nc2cccc(S(=O)(=O)C(F)(F)F)c2)[C@@H]2C=C[C@H]1C2 (racemic) [Example 449]
93,4.1,"COc1cc(C#N)c(O[C@H]2CC[C@@](C)(C(=O)O)CC2)cc1C(=O)N[C@@H]1C2CCC(CC2)[C@@H]1C(=O)NCC1(C)CCC1 (racemic) [Example 468, (1R,4s)-4-(2-Cyano-4-methoxy-5-(((2SR,3RS)-3-(((1-methylcyclobutyl)methyl)carbamoyl)bicyclo[2.2.2]octan-2-yl)carbamoyl)phenoxy)-1-methylcyclohexane-1-carboxylic acid]"
96,44,"COc1cc(F)c(O[C@H]2CC[C@@](C)(C(N)=O)CC2)cc1C(=O)N[C@@H]1[C@@H]2CC[C@@H](C2)[C@@H]1C(=O)NCC1(C)CCC1 [Example 421, (1S,2S,3R,4R)-3-(5-(((1s,4S)-4-Carbamoyl-4-methylcyclohexyl)oxy)-4-fluoro-2-methoxybenzamido)-N-((1-methylcyclobutyl)methyl)bicyclo[2.2.1]heptane-2-carboxamide]"
147,120,CCC(CC)CNC(=O)c1ccc(C)cc1NC(=O)c1cc(O[C@H]2CC[C@@](C)(C(=O)O)CC2)c(C#N)cc1OC [Example 167]
88,450,"COc1cc(F)c(OC2CCC(C)(C(=O)O)CC2)cc1C(=O)NC1C2CCC(CC2)C1C(=O)NCC1(C)CCC1 (single isomer, unassigned) [Example 543, (1R,4s)-4-(2-Fluoro-4-methoxy-5-(((2S*,3R*)-3-(((1-methylcyclobutyl)methyl)carbamoyl)bicyclo[2.2.2]octan-2-yl)carbamoyl)phenoxy)-1-methylcyclohexane-1-carboxylic acid]"
103,390,COc1cc(F)c(O[C@H]2CC[C@@](C)(C(=O)O)CC2)cc1C(=O)N[C@@H]1[C@H]2CC[C@H](C2)[C@@H]1C(=O)NC1CC(F)(F)C1 [Example 619]
111,570,COc1cc(F)c(-c2ncc(C(=O)O)s2)cc1C(=O)N[C@H]1[C@@H](C(=O)Nc2cccc(S(=O)(=O)C(F)(F)F)c2)[C@@H]2C=C[C@H]1C2 (racemic) [Example 287]
114,70,CC[C@]1(C(=O)O)CC[C@@H](Oc2cc(C(=O)N[C@@H]3[C@H]4CC[C@H](C4)[C@@H]3C(=O)NCC(C)(C)C)c(OC)cc2F)CC1 [Example 386]
103,2.2,COc1cc(F)c(O[C@H]2CC[C@@](CO)(C(=O)O)CC2)cc1C(=O)N[C@@H]1[C@@H]2CC[C@@H](C2)[C@@H]1C(=O)Nc1cccc(S(=O)(=O)C(F)(F)F)c1 (racemic) [Example 366]
91,170,COc1cc(F)c(O[C@H]2CC[C@@](C)(C(=O)O)CC2)cc1C(=O)N[C@@H]1[C@@H](OC)CC[C@@H]1C(=O)Nc1cccc(S(=O)(=O)C(F)(F)F)c1 (racemic) [Example 359]
